Laboratory results as given in paper PMC10343724, “Evaluation of Antimicrobial, Anticholinesterase Potential of Indole Derivatives and Unexpectedly Synthesized Novel Benzodiazine: Characterization, DFT and Hirshfeld Charge Analysis” (Molecules, 2023).
pIC50: −log10 of the molar value.

Key:
[1] = biological target: acetylcholinesterase (Homo sapiens, UniProt P22303); assay: biochemical; settings: apparent value; due to solubility issues the IC50 values can be far less; read-out: IC50, acetylcholinesterase inhibition
Chain of acetylcholinesterase (P22303 32-614): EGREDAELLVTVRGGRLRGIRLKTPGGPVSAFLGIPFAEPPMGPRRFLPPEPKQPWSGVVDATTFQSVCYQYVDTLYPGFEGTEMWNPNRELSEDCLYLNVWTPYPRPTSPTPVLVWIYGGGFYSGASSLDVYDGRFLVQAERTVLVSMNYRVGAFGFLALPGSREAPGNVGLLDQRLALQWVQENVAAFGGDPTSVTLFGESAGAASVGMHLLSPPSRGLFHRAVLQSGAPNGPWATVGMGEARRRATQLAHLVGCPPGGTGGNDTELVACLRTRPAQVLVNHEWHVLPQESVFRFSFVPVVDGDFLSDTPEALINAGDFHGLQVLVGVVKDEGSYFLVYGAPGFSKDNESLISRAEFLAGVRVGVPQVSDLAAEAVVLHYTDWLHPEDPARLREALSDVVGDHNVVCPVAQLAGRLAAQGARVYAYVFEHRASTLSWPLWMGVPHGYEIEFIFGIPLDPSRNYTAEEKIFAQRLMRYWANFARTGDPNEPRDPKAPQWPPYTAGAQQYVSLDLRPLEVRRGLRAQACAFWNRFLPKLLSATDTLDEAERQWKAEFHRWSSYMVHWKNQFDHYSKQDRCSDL
Description: (§1) Azine derivatives, benzoxazepines and benzodiazepines show various biological activities, including antibacterial, antifungal, and anticholinesterase activities. This makes benzo-diazine an excellent candidate for exploration of its potential for cholinesterase inhibition and antimicrobial activities.
(§2) Antibacterial activity was assessed against clinically isolated, antibiotic-resistant strains of Salmonella typhi and Staphylococcus aureus using Disk diffusion assay, as previously described. Anticholinesterase activity was also performed, as described earlier for indoles.

[2] = tested on: antibiotic-resistant strains of Salmonella Typhi; assay: Disc diffusion assay, antibacterial activity; format: cell-based; settings: clinically isolated antibiotic-resistant S. Typhi
Description: (§3) Disc diffusion assay was performed to evaluate the antibacterial potential of compounds (8, 9, 10 and 12) against antibiotic-resistant strains of Salmonella Typhi and Staphylococcus aureus. […] Heterocyclic compounds are well-known for their antibacterial potential. A series of Benzoxazepine derivatives have shown promising antibacterial activities against Staphylococcus sciuri (zone of inhibition as 8–21 mm) and E. coli (zone of inhibition as 8–14 mm). Isoxazolyl benzo [1, 4]diazepine-5-ones have shown antibacterial against both G + ve (B. subtilis, B. sphaericus, S.aureus) and G-ve bacteria (P. aeruginosa, K. aerogenes, C. violaceum).
as §2

[3] = tested on: antibiotic-resistant strains of Staphylococcus aureus; assay: Disc diffusion assay, antibacterial activity; format: cell-based; settings: clinically isolated antibiotic-resistant S. aureus
Description: as §3, §2

[4] = Solubility behaviour in the anticholinesterase reaction mixture; format: physicochemical; settings: anticholinesterase assay reaction mixture
Excerpt: as §1

SMILES | pIC50 [1] | zone of inhibition (ZOI) [2] | zone of inhibition (ZOI) [3] | precipitation in the reaction mixture [4]
COC(=O)C(C)Oc1nc(-c2ccccc2)nc2c(C(=O)c3ccccc3)c(OC)cc(OC)c12 (stereo not drawn) [Compound 12, 8-Benzoyl-5,7-Dimethoxy-4-(1‴-Methyoxycarbonylethoxy)-2-Phenyl-1,3-Benzodiazine] | 5.21 | ~ 13 mm | ~20 mm | precipitated even at lower concentrations
COc1cc(OC)c2c(-c3ccccc3)c(-c3ccccc3)[nH]c2c1C(N)=O [Compound 10, 4,6-Dimethoxy-2,3-Diphenyl-1H-Indole-7-Carboxamide] | – | – | ~17 mm | –
COc1cc(OC)c2c(-c3ccccc3)c(-c3ccccc3)[nH]c2c1C(=O)O [Compound 9, 4,6-Dimethoxy-2,3-Diphenylindole-7-Carboxylic Acid] | – | – | ~21 mm | precipitated even at lower concentrations
COc1cc(OC)c2c(-c3ccccc3)c(-c3ccccc3)[nH]c2c1C(=O)C(Cl)(Cl)Cl [Compound 8, 7-Trichloro-acetyl-4,6-Dimethoxy-2,3-Diphenyl-1H-Indole] | 5.14 | – | ~ 18 mm | –
